For 18 molecules, IC50 results are on record in patent US8957074B2 (Novartis AG, priority 2010, dated 2015).

Read-outs that look alike come from different tables or passages of the source.

In one test the target is CDK4/cyclin D1 (Homo sapiens (Human), UniProt P11802). In words: CDK4/cyclin D1 enzymatic activity assay (TR-FRET, phosphorylation of pRb at Ser780). It is filed as biochemical. The procedure, abridged:
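Phosphorylation at pRb Ser780, detected by TR-FRET, gave IC50s and kinetics. Enzyme: baculovirus/Sf21-expressed human CDK4/cyclin D1. ATP at 3 μM initiated the reaction; EDTA (pH 8.0) stopped it after 60 min at 22° C.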
In general terms: Time-resolved FRET reads energy transfer from a long-lived donor to a nearby acceptor.

For test [1], the system named is phosphorylation of pRb at the Ser780 site in JeKo-1 mantle cell lymphoma cells. The test can be described thus: CDK4 cellular assay: ELISA of pRb phosphorylation at Ser780 in JeKo-1 cells. It is filed as cell-based. As to conditions: Homo sapiens.
The target of a further test is CDK1/cyclin B (Homo sapiens (Human), UniProt P06493). In words: CDK1/cyclin B enzymatic activity assay (IMAP-FP). Type of test: biochemical. As to conditions: 100 nM Tamra Histone-H1 peptide, 20 μM ATP, 120 min at room temperature, read-out: Biochemical CDK1 enzyme IC50. The source says: CDK1/Cyclin B Enzymatic Activity Assay
A 384-well microtiter IMAP-FP™ (Molecular Devices Trade Mark Technology) endpoint assay was used for CDK1/cyclin B kinase activity measurements. The same assay was used for IC50 determination of small molecule inhibitors.

Setting [2] is: 0.3 nM CDK4/cyclin D1, 150 nM biotin-pRb (773-924), 3 μM ATP, 60 min at 22° C., read-out: Biochemical CDK4 enzyme IC50.
The mark [3] stands for this setting: JeKo-1, JeKo-1 cells, p-pRb % inhibition adjusted with total pRb levels, read-out: Normalized cellular ppRb inhibition IC50.
The mark [4] stands for this setting: JeKo-1, JeKo-1 cells, p-pRb Ser780 ELISA, non-normalized, read-out: Cellular ppRb inhibition IC50.
Setting [5] is: JeKo-1 cells, p-pRb % inhibition adjusted with total pRb levels, read-out: Normalized cellular ppRb inhibition IC50.
The mark [6] stands for this setting: JeKo-1 cells, p-pRb Ser780 ELISA, non-normalized, read-out: Cellular ppRb inhibition IC50.

As usually defined, the IC50 is the concentration that inhibits the measured activity by half.

Chain of CDK4/cyclin D1 (P11802 whole entry): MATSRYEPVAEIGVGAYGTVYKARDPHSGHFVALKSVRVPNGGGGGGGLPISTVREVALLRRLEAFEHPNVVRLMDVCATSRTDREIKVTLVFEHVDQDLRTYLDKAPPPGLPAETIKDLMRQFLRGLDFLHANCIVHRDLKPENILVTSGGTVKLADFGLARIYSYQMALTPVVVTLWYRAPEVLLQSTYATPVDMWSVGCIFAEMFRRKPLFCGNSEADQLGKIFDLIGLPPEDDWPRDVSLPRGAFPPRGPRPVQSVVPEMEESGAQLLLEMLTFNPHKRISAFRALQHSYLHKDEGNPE
Chain of CDK4/cyclin D1 (P24385 whole entry partner): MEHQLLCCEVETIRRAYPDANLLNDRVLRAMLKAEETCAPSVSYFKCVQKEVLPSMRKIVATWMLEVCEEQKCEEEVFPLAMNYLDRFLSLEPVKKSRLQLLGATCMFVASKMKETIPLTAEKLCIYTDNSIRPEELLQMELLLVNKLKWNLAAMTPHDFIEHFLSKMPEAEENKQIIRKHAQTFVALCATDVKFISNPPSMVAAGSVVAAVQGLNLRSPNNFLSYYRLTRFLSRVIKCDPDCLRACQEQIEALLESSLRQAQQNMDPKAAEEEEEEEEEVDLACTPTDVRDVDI
Chain of CDK1/cyclin B (P06493 whole entry, species assumed): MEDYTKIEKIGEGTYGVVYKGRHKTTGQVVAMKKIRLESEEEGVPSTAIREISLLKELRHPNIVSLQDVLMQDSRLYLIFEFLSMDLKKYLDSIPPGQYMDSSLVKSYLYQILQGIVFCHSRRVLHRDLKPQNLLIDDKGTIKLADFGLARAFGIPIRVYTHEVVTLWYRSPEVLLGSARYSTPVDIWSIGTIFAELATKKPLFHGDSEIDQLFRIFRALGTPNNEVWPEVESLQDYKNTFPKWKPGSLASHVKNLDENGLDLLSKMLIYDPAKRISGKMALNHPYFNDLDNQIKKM
Chain of CDK1/cyclin B (P14635 whole entry partner, species assumed): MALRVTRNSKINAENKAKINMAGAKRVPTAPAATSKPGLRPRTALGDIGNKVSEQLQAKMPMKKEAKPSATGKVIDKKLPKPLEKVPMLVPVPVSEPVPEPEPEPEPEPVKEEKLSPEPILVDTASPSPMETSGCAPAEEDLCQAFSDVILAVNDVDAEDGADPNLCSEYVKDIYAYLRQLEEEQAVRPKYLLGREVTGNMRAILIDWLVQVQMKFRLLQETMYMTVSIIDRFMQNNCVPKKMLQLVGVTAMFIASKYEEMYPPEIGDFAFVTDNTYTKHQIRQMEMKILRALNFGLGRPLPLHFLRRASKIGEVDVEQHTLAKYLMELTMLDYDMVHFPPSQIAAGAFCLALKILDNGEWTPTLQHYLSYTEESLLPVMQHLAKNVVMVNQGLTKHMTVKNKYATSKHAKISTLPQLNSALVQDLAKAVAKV

As for `CN(C)C(=O)c1cc2cnc(Nc3ccc(N4CC5CNCC5C4=O)cn3)nc2n1C1CCCC1` (racemic) [Example 84, 7-cyclopentyl-N,N-dimethyl-2-(5-cis-1-oxohexahydropyrrolo[3,4-c]pyrrol-2(1H)-yl)pyridin-2-ylamino)-7H-pyrrolo[2,3-d]pyrimidine-6-carboxamide], the 50% inhibitory concentration (IC50) was less than 5 nM on CDK4/cyclin D1 (setting [2]), 10 to 28 nM in test [1] (setting [3]), 7 to 17 nM in test [1] (setting [4]) and 18000 nM at CDK1/cyclin B (0.25 nM CDK1/cyclin B).
As to `CN(C)C(=O)c1cc2cnc(Nc3ccc(N4CC5(CC6CCC(C5)N6)OC4=O)cn3)nc2n1C1CCCCC1` [Example 94, 7-cyclohexyl-N,N-dimethyl-2-(5-((1R,3r,5S)-2′-oxo-8-azaspiro[bicyclo[3.2.1]octane-3,5′-oxazolidine]-3′-yl)pyridin-2-ylamino)-7H-pyrrolo[2,3-d]pyrimidine-6-carboxamide], the IC50 on CDK4/cyclin D1 (setting [2]) is 41 to 44 nM; in test [1] (setting [3]), 34 to 206 nM; in test [1] (setting [4]), 25 to 154 nM; at CDK1/cyclin B ([…] CDK1/cyclin B), more than 15000 nM.
In the same order, the values of `CN(C)C(=O)c1cc2cnc(Nc3ccc(N4C[C@@H]5CC[C@H](CC4=O)N5)cn3)nc2n1C1CCC1` [Example 135, 7-Cyclobutyl-2-[5-((1S,6R)-4-oxo-3,9-diaza-bicyclo[4.2.1]non-3-yl)-pyridin-2-ylamino]-7H-pyrrolo[2,3-d]pyrimidine-6-carboxylic acid dimethylamide] are 7 nM, 38 nM, 19 nM and more than 15000 nM.
For `CN(C)C(=O)c1cc2cnc(Nc3ccc(C(=O)N4CC5CC4CN5)cn3)nc2n1C1CCCCCC1` (stereo not drawn) [Example 3, 7-Cycloheptyl-2-[5-(2,5-diaza-bicyclo[2.2.1]heptane-2-carbonyl)-pyridin-2-ylamino]-7H-pyrrolo[2,3-d]pyrimidine-6-carboxylic acid dimethylamide], the half-maximal inhibitory concentration (IC50) is 1 nM on CDK4/cyclin D1 (setting [2]), 29 to 33 nM in test [1] (setting [5]), 19 to 26 nM in test [1] (setting [6]) and 4200 to 5140 nM on CDK1/cyclin B (0.25 nM CDK1/cyclin B).
Turning to `CN(C)C(=O)c1cc2cnc(Nc3ccc(C(=O)N4CC5CCC(C4)N5CCO)cn3)nc2n1C1CCCC1` [Example 28, 7-cyclopentyl-2-(5-(8-(2-hydroxyethyl)-3,8-diazabicyclo[3.2.1]octane-3-carbonyl)pyridin-2-ylamino)-N,N-dimethyl-7H-pyrrolo[2,3-d]pyrimidine-6-carboxamide], the half-maximal inhibitory concentration (IC50) on CDK4/cyclin D1 (setting [2]) is 22 nM; in test [1] (setting [3]), 69 nM; in test [1] (setting [4]), 63 nM; at CDK1/cyclin B ([…] CDK1/cyclin B), more than 15000 nM.
In the same order, the values of `CN(C)C(=O)c1cc2cnc(Nc3ccc(N4C[C@H]5CNC[C@H]5CC4=O)cn3)nc2n1C1CCCCCC1` (stereo in doubt) [Example 88, 7-cycloheptyl-N,N-dimethyl-2-(5-(cis-6-oxotetrahydro-1H-pyrrolo[3,4-c]pyridin-5(6H, 7H, 7a H)-yl)pyridin-2-ylamino)-7H-pyrrolo[2,3-d]pyrimidine-6-carboxamide] are 5 nM, 11 nM, 7 nM and 2510 nM.
On to `CN(C)C(=O)c1cc2cnc(Nc3ccc(C(=O)N4C[C@H]5CNC[C@@H](C4)C5O)cn3)nc2n1C1CCCC1` (stereo partly drawn) [Example 1, 7-Cyclopentyl-2-(5-((1R,5S)-9-hydroxy-3,7-diazabicyclo[3.3.1]nonane-3-carbonyl)pyridin-2-ylamino)-N,N-dimethyl-7H-pyrrolo[2,3-d]pyrimidine-6-carboxamide], for which the concentration for half-maximal inhibition (IC50) is 17 nM at CDK4/cyclin D1 (setting [2]), 538 nM in test [1] (setting [5]), 364 nM in test [1] (setting [6]) and more than 15000 nM at CDK1/cyclin B ([…] CDK1/cyclin B).
In the same order, the values of `CN(C)C(=O)c1cc2cnc(Nc3ccc(N4CCC5(CCCN5)C4=O)cn3)nc2n1C1CCCOC1` (stereo not drawn) [Example 121, N,N-dimethyl-2-(5-(6-oxo-1,7-diazaspiro[4.4]nonan-7-yl)pyridin-2-ylamino)-7-(tetrahydro-2H-pyran-3-yl)-7H-pyrrolo[2,3-d]pyrimidine-6-carboxamide] are 79 to 107 nM, 199 to 791 nM, 184 to 489 nM and more than 15000 nM.
Take `CN1CCCC2(CC1)CN(c1ccc(Nc3ncc4cc(C(=O)N(C)C)n(C5CCCC5)c4n3)nc1)C(=O)O2` (stereo not drawn) [Example 104, 7-Cyclopentyl-2-[5-(8-methyl-2-oxo-1-oxa-3,8-diaza-spiro[4.6]undec-3-yl)-pyridin-2-ylamino]-7H-pyrrolo[2,3-d]pyrimidine-6-carboxylic acid dimethylamide]: the half-maximal inhibitory concentration (IC50) was 20 nM on CDK4/cyclin D1 (setting [2]), 64 nM in test [1] (setting [5]), 29 nM in test [1] (setting [6]) and more than 15000 nM at CDK1/cyclin B ([…] CDK1/cyclin B).
In the case of `CN(C)C(=O)c1cc2cnc(Nc3ccc(N4CCN5CCCC5C4)cn3)nc2n1C1CCCC1` (stereo not drawn) [Example 116, 7-cyclopentyl-2-(5-(hexahydropyrrolo[1,2-a]pyrazin-2(1H)-yl)pyridin-2-ylamino)-N,N-dimethyl-7H-pyrrolo[2,3-d]pyrimidine-6-carboxamide], the concentration for half-maximal inhibition (IC50) at CDK4/cyclin D1 (setting [2]) is 110 nM; in test [1] (JeKo-1, read-out: Cellular ppRb inhibition IC50) it was 604 nM; in test [1] (JeKo-1, read-out: Normalized cellular ppRb inhibition IC50) it was 605 nM; on CDK1/cyclin B ([…] CDK1/cyclin B), more than 15000 nM.
With `CN(C)C(=O)c1cc2cnc(Nc3ccc(C(=O)N4CC5CC5(N(C)C)C4)cn3)nc2n1C1CCCC1` (stereo not drawn) [Example 17, 7-Cyclopentyl-2-[5-(1-dimethylamino-3-aza-bicyclo[3.1.0]hexane-3-carbonyl)-pyridin-2-ylamino]-7H-pyrrolo[2,3-d]pyrimidine-6-carboxylic acid dimethylamide], the IC50 on CDK4/cyclin D1 (setting [2]) was 65 nM; in test [1] (setting [5]) it was 643 nM; in test [1] (setting [6]), 281 nM; on CDK1/cyclin B ([…] CDK1/cyclin B), more than 15000 nM.
Consider `CN(C)C(=O)c1cc2cnc(Nc3ccc(N4CCN5CCCC5C4=O)cn3)nc2n1C1CCCC1` (stereo not drawn) [Example 115], for which the IC50 on CDK4/cyclin D1 (setting [2]) was 20 to 51 nM; in test [1] (setting [3]) it was 369 to 407 nM; in test [1] (setting [4]), 135 to 306 nM; at CDK1/cyclin B (0.25 nM CDK1/cyclin B), more than 15000 nM.
For `CN(C)C(=O)c1cc2cnc(Nc3ccc(N4C[C@H]5CNC[C@H]5C4=O)cn3)nc2n1C1CCCC1` [Example 86, 7-cyclopentyl-N,N-dimethyl-2-(5-((3aR,6aS)-1-oxohexahydropyrrolo[3,4-c]pyrrol-2(1H)-yl)pyridin-2-ylamino)-7H-pyrrolo[2,3-d]pyrimidine-6-carboxamide], the IC50 was 5 to 6 nM at CDK4/cyclin D1 (setting [2]), 13 to 14 nM in test [1] (setting [3]), 8 to 17 nM in test [1] (setting [4]) and 20600 nM on CDK1/cyclin B ([…] CDK1/cyclin B).
For the molecule `CN(C)C(=O)c1cc2cnc(Nc3ccc(C(=O)N4CC5CCC(C4)N5)cn3)nc2n1C1CCCC1` [Example 18, 7-Cyclopentyl-2-[5-(3,8-diaza-bicyclo[3.2.1]octane-3-carbonyl)-pyridin-2-ylamino]-7H-pyrrolo[2,3-d]pyrimidine-6-carboxylic acid dimethylamide], the IC50 is 8 to 24 nM against CDK4/cyclin D1, 26 to 90 nM in test [1] (setting [3]), 12 to 37 nM in test [1] (setting [4]) and 13200 nM at CDK1/cyclin B ([…] CDK1/cyclin B).
With `CN(C)C(=O)c1cc2cnc(Nc3ccc(N4C[C@@H]5CC[C@H](CC4=O)N5)cn3)nc2n1C1CCCCC1` [Example 132, 7-Cyclohexyl-2-[5-((1S,6R)-4-oxo-3,9-diaza-bicyclo[4.2.1]non-3-yl)-pyridin-2-ylamino]-7H-pyrrolo[2,3-d]pyrimidine-6-carboxylic acid dimethylamide], the IC50 at CDK4/cyclin D1 (setting [2]) was 19 nM; in test [1] (setting [3]), 28 to 47 nM; in test [1] (setting [4]), 21 to 50 nM; on CDK1/cyclin B ([…] CDK1/cyclin B), more than 15000 nM.
For `CN(C)C(=O)c1cc2cnc(Nc3ccc(C(=O)N4CC5CC5(N)C4)cn3)nc2n1C1CCCC1` (racemic) [Example 14, 2-[5-(1-Amino-3-aza-bicyclo[3.1.0]hexane-3-carbonyl)-pyridin-2-ylamino]-7-cyclopentyl-7H-pyrrolo[2,3-d]pyrimidine-6-carboxylic acid dimethylamide] the same measures were 19 nM, 371 nM, 133 nM and more than 15000 nM.
For `CN(C)C(=O)c1cc2cnc(Nc3ccc(N4CCN5CCC[C@H]5C4=O)cn3)nc2n1C1CCCC1` [Example 146] the same measures were 619 nM, 2900 nM, 2700 nM and more than 15000 nM.
In the same order, the values of `CN(C)C(=O)c1cc2cnc(Nc3ccc(C(=O)N4C[C@H]5CN[C@H](C5)C4)cn3)nc2n1C1CCCC1` [Example 11, 7-Cyclopentyl-2-[5-((1R,5R)-3,6-diaza-bicyclo[3.2.1]octane-3-carbonyl)-pyridin-2-ylamino]-7H-pyrrolo[2,3-d]pyrimidine-6-carboxylic acid dimethylamide] are 9 nM, 68 nM, 39 nM and more than 15000 nM.
